Source: PubChem BioAssay AID256 (DTP/NCI, 2004)
Where “and” joins values, the source holds several entries; their conditions need not be identical. Equal values may be shown once. Toxic doses and inconclusive results are not listed. Rule for the calls: active = survival T/C of 150% or more; inactive = T/C below 125% in these data.

Tested on: CD2F1 mice, L1210 leukemia ip, survival T/C
Test: NCI In Vivo Anticancer Drug Screen. Data for tumor model L1210 Leukemia (intraperitoneal) in CD2F1 (CDF1) mice
Conditions: higher = longer survival
Method in brief: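 Mice carrying a transplanted tumor received test compound or vehicle alone. The value is the measurement in the treated group divided by that in the vehicle-treated control group.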

Measured: T/C

O=c1n(CC2CO2)c(=O)n(CC2CO2)c(=O)n1CC1CO1 (stereo unspecified)
inactive: endpoint: mean survival time, dose: 50.0 mg/kg/injection, schedule: Q01DX009 (ip), vehicle: suspension in saline 94 % of control | endpoint: mean survival time, dose: 75.0 mg/kg/injection, schedule: Q01DX009 (ip), vehicle: saline 91 % of control | endpoint: mean survival time, dose: 80.0 mg/kg/injection, schedule: Q01DX009 (ip), vehicle: saline 104 % of control | endpoint: median survival time, dose: 12.5 mg/kg/injection, schedule: Q01DX001 (ip), vehicle: saline 121 % of control | endpoint: median survival time, dose: 12.5 mg/kg/injection, schedule: Q01DX001 (iv), vehicle: saline 101 % of control | endpoint: median survival time, dose: 12.5 mg/kg/injection, schedule: Q01DX005 (iv), vehicle: saline 113 % of control | endpoint: median survival time, dose: 12.5 mg/kg/injection, schedule: Q01DX009 (oral), vehicle: saline 105 % of control | endpoint: median survival time, dose: 20.0 mg/kg/injection, schedule: Q03HX024 (ip), vehicle: saline 116 % of control | endpoint: median survival time, dose: 25.0 mg/kg/injection, schedule: Q01DX001 (iv), vehicle: saline 107 % of control | endpoint: median survival time, dose: 25.0 mg/kg/injection, schedule: Q01DX009 (oral), vehicle: saline 110 % of control | endpoint: median survival time, dose: 50.0 mg/kg/injection, schedule: Q04DX003 (oral), vehicle: saline 116 % of control | endpoint: median survival time, dose: 70.0 mg/kg/injection, schedule: Q01DX005 (ip), vehicle: saline 110 % of control | endpoint: median survival time, dose: 100.0 mg/kg/injection, schedule: Q01DX001 (iv), vehicle: saline 100 % of control | endpoint: median survival time, dose: 100.0 mg/kg/injection, schedule: Q01DX001 (oral), vehicle: saline 123 % of control | endpoint: median survival time, dose: 100.0 mg/kg/injection, schedule: Q08DX002 (ip), vehicle: saline 122 % of control | endpoint: median survival time, dose: 150.0 mg/kg/injection, schedule: Q01DX005 (oral), vehicle: saline 116 % of control | endpoint: median survival time, dose: 350.0 mg/kg/injection, schedule: Q04DX003 (oral), vehicle: saline 122 % of control | endpoint: median survival time, dose: 350.0 mg/kg/injection, schedule: Q08DX002 (oral), vehicle: saline 119 % of control | endpoint: median survival time, dose: 400.0 mg/kg/injection, schedule: Q04DX003 (oral), vehicle: saline 120 % of control | endpoint: median survival time, dose: 450.0 mg/kg/injection, schedule: Q04DX003 (oral), vehicle: saline 118 % of control | endpoint: median survival time, dose: 450.0 mg/kg/injection, schedule: Q08DX002 (oral), vehicle: saline 118 % of control | endpoint: median survival time, dose: 500.0 mg/kg/injection, schedule: Q08DX002 (oral), vehicle: saline 123 % of control
206 % of control and 123 % of control: endpoint: mean survival time, dose: 6.25 mg/kg/injection, schedule: Q01DX009 (ip), vehicle: suspension in saline
300 % of control and 109 % of control: endpoint: mean survival time, dose: 40.0 mg/kg/injection, schedule: Q01DX009 (ip), vehicle: saline
active: endpoint: mean survival time, dose: 12.5 mg/kg/injection, schedule: Q01DX009 (ip), vehicle: saline with Tween-80 166 % of control and 157 % of control | endpoint: mean survival time, dose: 12.5 mg/kg/injection, schedule: Q01DX009 (ip), vehicle: suspension in saline 162 % of control | endpoint: mean survival time, dose: 20.0 mg/kg/injection, schedule: Q01DX009 (ip), vehicle: saline 178 % of control | endpoint: mean survival time, dose: 25.0 mg/kg/injection, schedule: Q01DX009 (ip), vehicle: saline with Tween-80 291 % of control | endpoint: mean survival time, dose: 25.0 mg/kg/injection, schedule: Q01DX009 (ip), vehicle: saline 151 % of control and 177 % of control and 158 % of control | endpoint: mean survival time, dose: 25.0 mg/kg/injection, schedule: Q01DX009 (ip), vehicle: suspension in saline 276 % of control and 152 % of control | endpoint: mean survival time, dose: 25.0 mg/kg/injection, schedule: Q04DX003 (ip), vehicle: saline 182 % of control | endpoint: mean survival time, dose: 25.0 mg/kg/injection, schedule: Q04DX005 (ip), vehicle: saline 165 % of control | endpoint: mean survival time, dose: 30.0 mg/kg/injection, schedule: Q01DX009 (ip), vehicle: saline 164 % of control | endpoint: mean survival time, dose: 30.0 mg/kg/injection, schedule: Q01DX010 (ip), vehicle: saline 166 % of control | endpoint: mean survival time, dose: 40.0 mg/kg/injection, schedule: Q01DX010 (ip), vehicle: saline 195 % of control | endpoint: mean survival time, dose: 50.0 mg/kg/injection, schedule: Q01DX001 (ip), vehicle: saline 160 % of control and 205 % of control | endpoint: mean survival time, dose: 50.0 mg/kg/injection, schedule: Q01DX009 (ip), vehicle: saline with Tween-80 170 % of control | endpoint: mean survival time, dose: 50.0 mg/kg/injection, schedule: Q01DX009 (ip), vehicle: saline 151 % of control | endpoint: mean survival time, dose: 50.0 mg/kg/injection, schedule: Q01DX010 (ip), vehicle: saline 219 % of control | endpoint: mean survival time, dose: 50.0 mg/kg/injection, schedule: Q04DX003 (ip), vehicle: saline 187 % of control | endpoint: mean survival time, dose: 50.0 mg/kg/injection, schedule: Q04DX005 (ip), vehicle: saline 259 % of control and 340 % of control | endpoint: mean survival time, dose: 60.0 mg/kg/injection, schedule: Q01DX001 (ip), vehicle: saline 168 % of control and 202 % of control | endpoint: mean survival time, dose: 60.0 mg/kg/injection, schedule: Q01DX009 (ip), vehicle: saline 467 % of control | endpoint: mean survival time, dose: 70.0 mg/kg/injection, schedule: Q01DX001 (ip), vehicle: saline 291 % of control | endpoint: mean survival time, dose: 75.0 mg/kg/injection, schedule: Q04DX003 (ip), vehicle: saline 154 % of control | endpoint: mean survival time, dose: 75.0 mg/kg/injection, schedule: Q04DX005 (ip), vehicle: saline 208 % of control and 581 % of control | endpoint: mean survival time, dose: 80.0 mg/kg/injection, schedule: Q01DX001 (ip), vehicle: saline 202 % of control and 351 % of control | endpoint: median survival time, dose: 5.0 mg/kg/injection, schedule: Q03HX024 (ip), vehicle: saline 167 % of control | endpoint: median survival time, dose: 10.0 mg/kg/injection, schedule: Q03HX008 (ip), vehicle: saline 167 % of control | endpoint: median survival time, dose: 10.0 mg/kg/injection, schedule: Q03HX016 (ip), vehicle: saline 176 % of control | endpoint: median survival time, dose: 10.0 mg/kg/injection, schedule: Q03HX024 (ip), vehicle: saline 212 % of control | endpoint: median survival time, dose: 12.5 mg/kg/injection, schedule: Q01DX005 (ip), vehicle: saline 150 % of control | endpoint: median survival time, dose: 20.0 mg/kg/injection, schedule: Q01DX009 (ip), vehicle: saline 175 % of control | endpoint: median survival time, dose: 20.0 mg/kg/injection, schedule: Q03HX008 (ip), vehicle: saline 637 % of control | endpoint: median survival time, dose: 20.0 mg/kg/injection, schedule: Q03HX016 (ip), vehicle: saline 172 % of control | endpoint: median survival time, dose: 25.0 mg/kg/injection, schedule: Q01DX005 (ip), vehicle: saline 380 % of control | endpoint: median survival time, dose: 25.0 mg/kg/injection, schedule: Q04DX003 (ip), vehicle: saline 167 % of control | endpoint: median survival time, dose: 40.0 mg/kg/injection, schedule: Q01DX005 (ip), vehicle: saline 216 % of control | endpoint: median survival time, dose: 40.0 mg/kg/injection, schedule: Q01DX009 (ip), vehicle: saline 253 % of control and 750 % of control | endpoint: median survival time, dose: 40.0 mg/kg/injection, schedule: Q03HX016 (ip), vehicle: saline 160 % of control | endpoint: median survival time, dose: 50.0 mg/kg/injection, schedule: Q01DX001 (ip), vehicle: saline 160 % of control and 166 % of control | endpoint: median survival time, dose: 50.0 mg/kg/injection, schedule: Q01DX005 (ip), vehicle: saline 750 % of control | endpoint: median survival time, dose: 50.0 mg/kg/injection, schedule: Q01DX009 (ip), vehicle: saline 750 % of control | endpoint: median survival time, dose: 50.0 mg/kg/injection, schedule: Q04DX003 (ip), vehicle: saline 253 % of control | endpoint: median survival time, dose: 50.0 mg/kg/injection, schedule: Q08DX002 (ip), vehicle: saline 187 % of control | endpoint: median survival time, dose: 60.0 mg/kg/injection, schedule: Q01DX005 (ip), vehicle: saline 275 % of control | endpoint: median survival time, dose: 60.0 mg/kg/injection, schedule: Q01DX009 (ip), vehicle: saline 178 % of control | endpoint: median survival time, dose: 200.0 mg/kg/injection, schedule: Q01DX009 (oral), vehicle: saline 151 % of control | endpoint: median survival time, dose: 200.0 mg/kg/injection, schedule: Q04DX003 (oral), vehicle: saline 191 % of control | endpoint: median survival time, dose: 200.0 mg/kg/injection, schedule: Q08DX002 (oral), vehicle: saline 163 % of control | endpoint: median survival time, dose: 250.0 mg/kg/injection, schedule: Q01DX009 (oral), vehicle: saline 151 % of control | endpoint: median survival time, dose: 250.0 mg/kg/injection, schedule: Q08DX002 (ip), vehicle: saline 160 % of control | endpoint: median survival time, dose: 300.0 mg/kg/injection, schedule: Q08DX002 (oral), vehicle: saline 185 % of control | endpoint: median survival time, dose: 350.0 mg/kg/injection, schedule: Q01DX001 (ip), vehicle: saline 151 % of control | endpoint: median survival time, dose: 450.0 mg/kg/injection, schedule: Q01DX001 (ip), vehicle: saline 160 % of control
221 % of control and 122 % of control: endpoint: median survival time, dose: 300.0 mg/kg/injection, schedule: Q04DX003 (oral), vehicle: saline
